Experimental data reported in ChEMBL document CHEMBL1201862, “PubChem BioAssay data set” (2004).
Activity calls are given as the source filed them.

What was measured:
[1] = luciferase reporter signal suppression in cells – H4 neuroglioma cells, luminescence, dose response (AID 1990); assay type: functional, cell-based
Beta-galactosidase = Beta-galactosidase (Escherichia coli, UniProt Q8VNN2); assay: PubChem AID 485352; assay type: functional
[2] = alpha-synuclein stem-loop luciferase translation blockers – H4 neuroglioma cells, luminescence, confirmation (AID 1988); assay type: functional, cell-based
[3] = Luminescence Cell-Based Dose Response HTS to Identify Inhibitors of 5'UTR Stem-Loop Driven Prion Protein mRNA Translation in H4 Neuroglioblastoma Cells. [Related pubchem assays: 1827 (Project Summary), 1813 (Primary HTS)]; assay type: functional
[4] = target: T1, Type-1 angiotensin II receptor (Homo sapiens, UniProt P30556); assay: antagonism of angiotensin II type 1 receptor – cell-based, uHTS hits, selectivity assay for APJ receptor antagonist project, dose response (AID 463214); assay type: functional;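 note: antagonist potency against angiotensin II stimulated AT1 response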
T1 sequence (P30556 whole entry): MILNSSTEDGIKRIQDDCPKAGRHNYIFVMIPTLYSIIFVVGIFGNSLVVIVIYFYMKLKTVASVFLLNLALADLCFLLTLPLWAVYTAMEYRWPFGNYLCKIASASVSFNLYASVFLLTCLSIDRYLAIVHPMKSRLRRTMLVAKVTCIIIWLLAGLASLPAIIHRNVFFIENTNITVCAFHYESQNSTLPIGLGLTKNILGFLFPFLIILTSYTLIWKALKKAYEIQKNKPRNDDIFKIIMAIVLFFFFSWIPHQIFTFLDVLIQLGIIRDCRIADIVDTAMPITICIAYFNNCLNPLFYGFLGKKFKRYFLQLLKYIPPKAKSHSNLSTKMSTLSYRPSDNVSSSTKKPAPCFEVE

[5] = blockers of HIV-1 envelope-mediated cell-cell fusion – cherry-pick, dose response (AID 652057); assay type: functional, cell-based
[6] = blockers of HIV-1 ZM109 envelope-driven cell-cell fusion – HeLa effector, CEM target cells, luciferase, cherry-pick, dose response (AID 652058); assay type: functional, cell-based;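 note: luciferase signal from HIV-1 Env mediated cell-cell fusion of effector and target cells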
[7] = HIV-1 AD8 envelope cell-cell fusion blockers – cherry-pick, dose response (AID 652062); assay type: functional, cell-based;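 note: luciferase signal from cell-cell fusion driven by HIV-1 clade B AD8 Env; potency is for inhibitors of fusion seen as a drop in luminescence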
[8] = off-target signal loss in HeLa-CEM21 co-culture – HeLa F-luc CTL cells, cherry-picked, counter-screen for HIV-1 Env fusion inhibitor project, dose response (AID 652040); assay type: functional, cell-based;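 note: potency for signal decrease marking cytotoxic or nonspecific inhibition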
HEK293 = assay: EBV LMP1 TES2 canonical NF-kB signalling blockers – cell-based, HEK293, luciferase, cherry-pick, dose response (AID 588343); assay type: functional; settings: Homo sapiens
[9] = loss of viability in HepG2 cells – cell-based, CellTiter-Glo, cherry-picked, cytotoxicity control for Shn3 inhibitor project, dose response (AID 624134); assay type: functional
[10] = non-specific 3'UTR reporter inhibition in Clone20-Shn3RL – cell-based, Renilla luciferase, cherry-picked, counter-screen for Shn3 inhibitor project, dose response (AID 624133); assay type: functional
[11] = reduction of Shn3 3'UTR-driven luciferase in osteoblasts – cell-based, Clone20 osteoblasts, firefly luciferase, cherry-picked, dose response (AID 624132); assay type: functional;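 note: firefly luciferase luminescence from reporter carrying the Shn3 3'UTR in osteoblasts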
[12] = target: Induced myeloid leukemia cell differentiation protein Mcl-1 (Homo sapiens, UniProt Q07820); assay type: functional
Chain of Induced myeloid leukemia cell differentiation protein Mcl-1 (Q07820 whole entry): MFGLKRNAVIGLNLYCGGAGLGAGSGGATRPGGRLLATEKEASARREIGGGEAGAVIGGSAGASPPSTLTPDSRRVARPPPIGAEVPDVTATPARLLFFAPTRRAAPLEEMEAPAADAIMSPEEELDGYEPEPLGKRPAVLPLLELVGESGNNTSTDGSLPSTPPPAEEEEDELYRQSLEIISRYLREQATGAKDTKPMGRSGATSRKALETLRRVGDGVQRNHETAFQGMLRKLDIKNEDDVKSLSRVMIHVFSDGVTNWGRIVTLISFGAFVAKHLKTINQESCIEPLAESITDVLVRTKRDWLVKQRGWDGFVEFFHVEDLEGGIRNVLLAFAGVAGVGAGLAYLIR

Paired box protein Pax-8 = Paired box protein Pax-8 (Homo sapiens, UniProt Q06710); assay: PAX8 transcriptional activity inhibition in RMG-I – RMG-I cells, luciferase, cherry-pick, dose response (AID 687027); assay type: functional, cell-based;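 note: luciferase reporter driven by Pax8 target thyroperoxidase promoter measured by SteadyGlo luminescence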
Chain of Paired box protein Pax-8 (Q06710 whole entry): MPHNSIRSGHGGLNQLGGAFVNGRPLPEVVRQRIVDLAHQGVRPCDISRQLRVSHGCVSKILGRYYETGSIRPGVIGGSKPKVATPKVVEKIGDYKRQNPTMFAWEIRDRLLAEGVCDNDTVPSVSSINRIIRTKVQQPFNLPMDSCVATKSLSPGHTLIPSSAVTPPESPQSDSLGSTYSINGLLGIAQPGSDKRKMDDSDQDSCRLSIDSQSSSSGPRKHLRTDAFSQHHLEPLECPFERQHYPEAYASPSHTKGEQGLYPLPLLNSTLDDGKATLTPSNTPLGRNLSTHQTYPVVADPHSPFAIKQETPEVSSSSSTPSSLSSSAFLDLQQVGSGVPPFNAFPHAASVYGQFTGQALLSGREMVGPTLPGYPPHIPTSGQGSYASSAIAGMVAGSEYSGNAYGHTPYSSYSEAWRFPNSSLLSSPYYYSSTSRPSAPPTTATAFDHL

Vero = assay: cells; assay type: functional; settings: Chlorocebus sabaeus
Aminopeptidase N = target: T2, Aminopeptidase N (Plasmodium falciparum FcB1/Columbia, UniProt O96935); assay: malaria alanyl aminopeptidase activity blockers – biochemical, fluorogenic H-Leu-NHMec substrate, 1536-well (AID 1445); parameters: species or system Plasmodium falciparum 3D7, 3D7
T2 sequence (O96935 whole entry): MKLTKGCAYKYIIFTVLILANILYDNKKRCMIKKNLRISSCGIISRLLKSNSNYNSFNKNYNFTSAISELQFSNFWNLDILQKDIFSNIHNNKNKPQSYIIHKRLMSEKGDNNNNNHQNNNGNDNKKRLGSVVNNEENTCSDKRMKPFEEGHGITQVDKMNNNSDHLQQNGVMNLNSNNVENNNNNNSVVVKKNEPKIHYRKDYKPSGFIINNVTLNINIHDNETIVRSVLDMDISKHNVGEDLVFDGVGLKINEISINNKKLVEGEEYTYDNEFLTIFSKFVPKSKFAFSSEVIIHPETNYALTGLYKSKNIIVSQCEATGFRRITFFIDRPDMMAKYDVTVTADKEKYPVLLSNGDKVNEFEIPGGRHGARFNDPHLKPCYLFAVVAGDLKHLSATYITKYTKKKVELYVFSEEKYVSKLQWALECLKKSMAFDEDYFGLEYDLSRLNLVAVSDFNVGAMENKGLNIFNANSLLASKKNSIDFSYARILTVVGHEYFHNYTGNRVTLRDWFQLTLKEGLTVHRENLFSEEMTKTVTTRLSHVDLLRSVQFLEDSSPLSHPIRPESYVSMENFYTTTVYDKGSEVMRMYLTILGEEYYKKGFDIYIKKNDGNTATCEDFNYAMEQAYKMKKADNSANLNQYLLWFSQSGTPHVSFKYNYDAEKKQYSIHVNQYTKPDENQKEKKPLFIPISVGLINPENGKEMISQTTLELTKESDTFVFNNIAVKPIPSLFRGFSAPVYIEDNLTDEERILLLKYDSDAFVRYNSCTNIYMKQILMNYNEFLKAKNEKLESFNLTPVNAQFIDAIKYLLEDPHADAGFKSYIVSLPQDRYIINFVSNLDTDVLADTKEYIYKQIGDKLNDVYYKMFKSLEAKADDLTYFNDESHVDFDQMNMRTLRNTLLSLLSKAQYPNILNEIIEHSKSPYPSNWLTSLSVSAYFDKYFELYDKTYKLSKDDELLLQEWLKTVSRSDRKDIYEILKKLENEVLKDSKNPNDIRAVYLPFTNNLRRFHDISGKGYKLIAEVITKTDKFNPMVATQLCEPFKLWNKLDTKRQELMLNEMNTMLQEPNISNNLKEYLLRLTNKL

[13] = target: T3, Polyadenylate-binding protein 1 (Homo sapiens, UniProt P11940); assay: MLLE binding blockers, Cy5 peptide tracer – biochemical, fluorescence polarization, Cy5-PAM2 peptide, secondary, miRNA deadenylation inhibitor project, dose response (AID 602260); assay type: functional; settings: read-out: IC50_Mean
T3 sequence (P11940 whole entry, the tested form may be a part): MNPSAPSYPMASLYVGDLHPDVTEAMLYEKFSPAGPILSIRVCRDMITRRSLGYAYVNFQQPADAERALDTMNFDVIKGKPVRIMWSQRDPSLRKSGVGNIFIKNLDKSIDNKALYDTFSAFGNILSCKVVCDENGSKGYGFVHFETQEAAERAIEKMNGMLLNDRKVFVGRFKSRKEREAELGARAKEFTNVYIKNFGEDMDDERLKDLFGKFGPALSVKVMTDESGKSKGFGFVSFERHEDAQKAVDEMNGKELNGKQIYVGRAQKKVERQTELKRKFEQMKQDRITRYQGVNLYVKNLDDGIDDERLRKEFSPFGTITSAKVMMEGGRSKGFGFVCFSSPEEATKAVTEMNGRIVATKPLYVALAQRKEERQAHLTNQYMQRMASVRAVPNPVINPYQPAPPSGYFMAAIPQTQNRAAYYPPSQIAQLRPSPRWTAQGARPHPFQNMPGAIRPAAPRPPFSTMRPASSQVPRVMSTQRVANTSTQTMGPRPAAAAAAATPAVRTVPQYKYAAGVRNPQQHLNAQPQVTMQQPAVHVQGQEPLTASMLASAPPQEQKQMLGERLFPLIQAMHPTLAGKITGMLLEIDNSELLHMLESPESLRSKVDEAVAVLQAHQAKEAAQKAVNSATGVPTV

[14] = target: T3, Polyadenylate-binding protein 1; assay: MLLE domain peptide-binding blockers, IC50 – biochemical, fluorescence polarization, FITC-PAM2 peptide, dose response (AID 602259); assay type: functional; settings: read-out: IC50_Mean

Chain of Beta-galactosidase (Q8VNN2 whole entry): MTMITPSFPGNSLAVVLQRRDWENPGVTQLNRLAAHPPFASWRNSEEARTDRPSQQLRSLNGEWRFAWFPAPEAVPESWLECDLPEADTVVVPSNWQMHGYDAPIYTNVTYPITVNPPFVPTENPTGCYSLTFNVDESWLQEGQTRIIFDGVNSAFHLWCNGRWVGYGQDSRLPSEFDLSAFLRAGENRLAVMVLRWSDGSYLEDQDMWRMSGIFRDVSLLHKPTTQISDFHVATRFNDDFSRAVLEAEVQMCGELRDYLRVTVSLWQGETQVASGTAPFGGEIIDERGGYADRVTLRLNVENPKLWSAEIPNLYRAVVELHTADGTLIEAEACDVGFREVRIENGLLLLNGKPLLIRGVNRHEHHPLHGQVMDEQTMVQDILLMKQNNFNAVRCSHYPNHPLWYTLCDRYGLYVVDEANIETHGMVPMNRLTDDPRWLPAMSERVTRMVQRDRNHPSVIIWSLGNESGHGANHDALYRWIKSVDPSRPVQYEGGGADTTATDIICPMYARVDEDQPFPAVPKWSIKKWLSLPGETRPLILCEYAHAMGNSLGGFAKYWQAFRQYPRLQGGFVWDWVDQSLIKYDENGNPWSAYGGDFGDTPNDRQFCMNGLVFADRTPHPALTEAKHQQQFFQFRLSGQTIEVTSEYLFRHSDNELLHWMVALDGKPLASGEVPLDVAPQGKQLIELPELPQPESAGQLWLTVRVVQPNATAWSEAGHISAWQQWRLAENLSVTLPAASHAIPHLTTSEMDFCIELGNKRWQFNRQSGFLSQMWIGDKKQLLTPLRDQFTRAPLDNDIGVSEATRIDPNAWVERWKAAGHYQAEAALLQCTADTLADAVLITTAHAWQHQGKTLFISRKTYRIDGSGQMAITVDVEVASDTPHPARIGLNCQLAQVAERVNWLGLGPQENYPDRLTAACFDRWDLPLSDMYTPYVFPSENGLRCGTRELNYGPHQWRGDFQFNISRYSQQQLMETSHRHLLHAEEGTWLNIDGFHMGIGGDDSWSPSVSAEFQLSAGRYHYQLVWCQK

## NNc1nc(-c2ccccc2)cc(-c2ccccc2)n1
[1]
  EC50: > 120 µM (not active)
Beta-galactosidase
  EC50: > 40 µM (inactive)
[2]
  EC50: > 120 µM (not active)
[3]
  EC50: > 120 µM (not active)
[4]
  IC50: 13 µM (active)

## CCc1nc2ccc(C(=O)N3CCN(C(=O)c4ccco4)CC3)cn2c1N(C)Cc1ccc(OC)cc1
[5]
  AC50: 2.72 µM (active)
[6]
  AC50: 7.5 µM (active)
[7]
  AC50: 13.5 µM (active)
[8]
  AC50: 10.4 µM (active)

## Cc1csc(N=Nc2ccc(N(C)C)cc2)[n+]1[O-]
HEK293
  AC50: 2.84 µM (active)

## OC1(c2cccc(C(F)(F)F)c2)CCN(c2[nH]cnc3c4cc(F)ccc4nc2-3)CC1
[9]
  AC50: 46 µM (active)
[10]
  AC50: 6.11 µM (active)
HEK293
  AC50: 7.02 µM (active)
[11]
  AC50: 1.87 µM (active)

## O=C(Nc1cc(Cl)cc(Cl)c1)C1CCC(=O)N1Cc1ccccc1Cl (centres undefined)
[5]
  AC50: 7.12 µM (active)
[6]
  AC50: 19.3 µM (active)
[7]
  AC50: 8.36 µM (active)
[8]
  AC50: 59.2 µM (active)

## COc1cc(/C=C2\SC(=S)N(CC(=O)Nc3ccc(O)cc3)C2=O)cc(OC)c1OC
[12]
  IC50: 3.74 µM (active)

## COc1cccc(/C=C2\SC(=S)N(CCC(=O)NCCc3ccc(O)cc3)C2=O)c1
Paired box protein Pax-8
  AC50: 4.57 µM (active)
Vero
  CC50: 16.1 µM (active)

## O=C(c1ccc2c(c1)OCO2)N(CC1CCCO1)C1(C(=O)NC2CCCCC2)CCCCC1 (centres undefined)
[5]
  AC50: 5.73 µM (active)
[6]
  AC50: 4.79 µM (active)
[7]
  AC50: 13 µM (active)
[8]
  AC50: 9.67 µM (active)

## O=C(CN1CCC(NC(=O)c2ccccc2F)CC1)Nc1ccc2c(c1)OCO2
Aminopeptidase N
  IC50: 34 µM (active)

## COc1ccc(NS(=O)(=O)c2ccc(N3CCCC3)c(NC(S)=Nc3ccc(SC(F)F)cc3)c2)cc1
[13]
  IC50: > 66 µM (inactive)
Paired box protein Pax-8
  AC50: 16.4 µM (active)
[14]
  IC50: > 66 µM (inactive)
